In one data set the test system is pig. The text has this:
For sublingual (s.l.) treatment it is necessary to anesthetize the animals as to allow the application of the insulin complexes onto the sublingual mucosa, but long-term anesthesia is undesirable as it may affect insulin/glucose metabolism.

Data set [1] has as its system diabetic Göttingen minipigs. Put plainly: Sublingual SLIM particles vs s.c. insulin, blood glucose in diabetic Göttingen minipigs. The conditions noted are these: Minipig 2, different days; SLIM-AF5 15 IU sublingual, RHI 10 IU subcutaneous; 2H30, after first 10 min. It counts as in vivo. The text has this:
Testing the sublingual application of SLIM particles loaded with insulin in normoglycemic and STZ diabetic […] in a chronic in vivo study.
The purpose of this chronic, large animal in vivo study was to test the effective penetration of insulin containing particles through the sublingual mucosa, compare the effect with the subcutaneously applied human recombinant, measure the blood glucose changes and analyses the plasma insulin levels. Domestic pigs were also included in the study to compare the glucose lowering effect of insulin-loaded particles in the Göttingen minipigs and domestic pigs. […]
In this study, we first recorded the effect of s.c. application of human recombinant insulin as reference compounds and s.c. and s.l. applications of micro-compounds. […] The glucose levels of the pigs were followed and monitored for at least 3 days. […]
Corresponding to Example 20, the efficacy of SLIM particles was compared to subcutaneous injection of commercial recombinant human insulin in the same diabetic Göttingen minipig (Minipig 2) on different days. First day the animal received SLIM-AF5 (AF, 15 IU) particles sublingually and the second day was administered Recombinant Human Insulin (RHI, 10 IU) subcutaneously and the BG levels were monitored for 2H30 and compared (FIG. 22).

Data set [2] is described as follows: Plasma insulin level in diabetic Göttingen minipigs. The data set is classed as in vivo. The following applies: diabetic Göttingen minipig, subcutaneous injection. The text has this: The purpose of this chronic, large animal in vivo study was to test the effective penetration of insulin containing particles through the sublingual mucosa, compare the effect with the subcutaneously applied human recombinant, measure the blood glucose changes and analyses the plasma insulin levels. Domestic pigs were also included in the study to compare the glucose lowering effect of insulin-loaded particles in the Göttingen minipigs and domestic pigs. The test compounds were applied s.l. and s.c. to the pigs being under the anesthetic propofol (Amnesia).
On the first day of acclimatization a central venous catheter was installed (Certofix®Mono B-Braun V430) for each domestic pig and Göttingen minipig. The pigs were fasted overnight before the day of operation, but supplied with water ad libitum. The animals were pre-anesthetized intramuscularly with Calypsol/Xilazine (2/1.8 mL, based on body weight) injections in the stalls to avoid stress, and were transported to the operating room. The anesthesia was maintained using isoflurane inhalation narcosis (2-2.5%) with oxygen. […]. The venous catheters were introduced by aseptic technique into the left external jugular vein. The end of the catheter was pulled subcutaneously to the back part of the head between the ears, and fixed by sutures, in two layers. […]

Data on two molecules can be found in patent US20250295606A1, “BIOSOLUBLE POLYMER OR PARTICLE FOR DELIVERY OF AN ACTIVE AGENT AND A METHOD FOR THE PRODUCTION” (Tijani Holding B.V., priority 2021, published 2025).

For the molecule `CC(C)c1cccc(C(C)C)c1O` [Propofol], in the data set with pig (5 mg/kg, 20 mg/mL i.v.), the “time until the jaw was relaxed” value worked out at 60 s and the “time until the pig was laying down” value was found to be 30 s. In the data set on pig (20 minutes before, then 5, 10, 15 and 30 minutes after anesthesia), the “blood glucose measurements under anesthesia” value is “in the normal range”.
Turning to “recombinant human insulin: commercial recombinant human insulin, subcutaneous reference”, in data set [1], the BG level course result is “continue to decline linearly with the time but with a slightly different speed and slop”. Besides, the “maxima of plasma insulin” value is listed as “only one insulin maximum in plasma” in data set [2] (2 IU) and “only one maximum peak of plasma insulin” in data set [2] (10 IU).
